# Experimental data reported in patent publication US4603128A, “Mineralocorticoid hormone antagonists” (priority 1984, dated 1986).
# Where two headings read alike, the source gives them in different places.
# Columns and labels:
# [1] = tested on: mineralocorticoid receptor of mammalian kidney; assay: Mineralocorticoid receptor affinity (competition with 3H-aldosterone); type: binding; settings: for Corticosteroid Receptor Affinity % Mineralocorticoid: amount of aldosterone vs amount of steroid for 50% reduction in binding of 1.3×10^-9 M 3H-aldosterone, kidney cytosol, aldosterone = 100; for Affinity Mineralocorticoid:Androgen Ratio: ratio of mineralocorticoid to androgen receptor affinity (therapeutic index)
# Description: Each assay tube contained 250 μl cytosol solution and 1,2-^3 H-aldosterone at a final steroid concentration of 1.3×10^-9 M. Standard curves were prepared in the range of 0.1 to 100 ng aldosterone and non-specific binding of 10^-5 M aldosterone was subtracted. The amount of steroid ligand required to effect 50% reduction in the binding of labeled aldosterone compared to the amount of aldosterone to effect the same reduction was expressed as a percentage.
# [2] = tested on: adrenalectomized rat; assay: Mineralocorticoid antagonism in vivo, adrenalectomized rat assay (urinary Na/K); settings: for In vivo antagonist activity compared with corresponding 7α-propionylthio derivative (Controls A, B, C, D): same substituents at C-21
# Description: The bioassay for anti-mineralocorticoid activity was carried out as described for the assay of mineralocorticoid agonist activity by Ulick, Land and Chu, (Endocrinology 99:619, 1976), except that the control group received 1 μg of aldosterone per 100 g body weight and the experimental group received the test substance in addition. All results were expressed as ratio of control urinary Na/K to treatment urinary Na/K. The minimum effective dose of antagonist was defined as that amount of test substance required to block one-half of the effect of 1 μg. aldosterone/100 g body weight as measured by the ratio of control: treatment urinary Na/K.
# [3] = Rattus norvegicus, sc, subcutaneous, with 1 μg aldosterone per 100 g body weight, dose reducing urinary Na/K effect to one half, inactive = no antagonist activity at 250 μg/100 g, read-out: Mineralocorticoid antagonism Minimum effective dose
# [4] = oral route, adrenalectomized rat, read-out: Mineralocorticoid antagonism Minimum effective dose oral
# [5] = subcutaneous, with 1 μg aldosterone per 100 g body weight, dose reducing urinary Na/K effect to one half, inactive = no antagonist activity at 250 μg/100 g
SMILES,Corticosteroid Receptor Affinity % Mineralocorticoid [1],Affinity Mineralocorticoid:Androgen Ratio [1],"ED50 [2, 3]",also measured
"C[C@]12CCC(=O)C=C1CC[C@@H]1[C@@H]2[C@@H](O)C[C@]2(C=O)[C@@H](C(=O)CO)CC[C@@H]12 [Aldosterone, reference compound]",100%,,,
CCCCCCC(=O)OCC(=O)[C@H]1CC[C@H]2[C@@H]3[C@H](SC(C)=O)CC4=CC(=O)CC[C@]4(C)[C@H]3CC[C@]12C [Example 7],27%,180,0.75 mg/kg,"In vivo antagonist activity compared with corresponding 7α-propionylthio derivative (Controls A, B, C, D) [2]: always more active"
"CC(=O)S[C@@H]1CC2=CC(=O)CC[C@]2(C)[C@H]2CC[C@]3(C)[C@@H](C(=O)CO)CC[C@H]3[C@H]12 [Example 2, 7α-Acetylthio-21-hydroxy-4-pregnene-3,20-dione]",35%,175,0.75 mg/kg,
CCCCC(=O)OCC(=O)[C@H]1CC[C@H]2[C@@H]3[C@H](SC(C)=O)CC4=CC(=O)CC[C@]4(C)[C@H]3CC[C@]12C [Example 6],68%,340,1.5 mg/kg,
"CC(=O)OCC(=O)[C@H]1CC[C@H]2[C@@H]3[C@H](SC(C)=O)CC4=CC(=O)CC[C@]4(C)[C@H]3CC[C@]12C [Example 3, 7α-Acetylthio-21-acetoxy-4-pregnene-3,20-dione]",65%,325,0.25 mg/kg,"Affinity ratio index compared with spironolactone ([1]; mineralocorticoid:androgen affinity ratio relative to spironolactone): ~40 times; Dose of spironolactone relative to compound required for equivalent mineralocorticoid antagonist effect, oral ([2]; oral route): four-fold; ED50 [2, 4]: 2.5 mg/kg; In vivo antagonist activity compared with corresponding 7α-propionylthio derivative (Controls A, B, C, D) [2]: always more active; Effectiveness relative to spironolactone, subcutaneous ([2]; subcutaneous route): 10 times; Mineralocorticoid antagonism Minimum effective dose [2, 5]: 25 μg/100 g"
"CCCCCCC(=O)OCC(=O)[C@H]1CC[C@H]2[C@@H]3[C@H](SC(=O)CC)CC4=CC(=O)CC[C@]4(C)[C@H]3CC[C@]12C [Control D, 7α-Propionylthio-21-heptanoyloxy-4-pregnene-3,20-dione, reference compound]",,,,"Mineralocorticoid antagonism Minimum effective dose [2, 5]: inactive"
CCC(=O)OCC(=O)[C@H]1CC[C@H]2[C@@H]3[C@H](SC(C)=O)CC4=CC(=O)CC[C@]4(C)[C@H]3CC[C@]12C [Example 4],38%,190,1 mg/kg,
"CC(=O)S[C@@H]1CC2=CC(=O)CC[C@]2(C)[C@H]2CC[C@]3(C)[C@@H](C(C)=O)CC[C@H]3[C@H]12 [Example 1, 7α-Acetylthio-4-pregnene-3,20-dione]",43%,172,1 mg/kg,"In vivo antagonist activity compared with corresponding 7α-propionylthio derivative (Controls A, B, C, D) [2]: always more active"
"CC(=O)S[C@@H]1CC2=CC(=O)CC[C@]2(C)[C@H]2CC[C@@]3(C)[C@@H](CC[C@@]34CCC(=O)O4)[C@H]12 [Spironolactone, spironolactone, reference compound]",18%,,2.5 mg/kg,"ED50 [2, 4]: 10 mg/kg; Mineralocorticoid antagonism Minimum effective dose [2, 5]: 250 μg/100 g"
"CCC(=O)S[C@@H]1CC2=CC(=O)CC[C@]2(C)[C@H]2CC[C@]3(C)[C@@H](C(=O)COC(C)=O)CC[C@H]3[C@H]12 [Control B, 7α-Propionylthio-21-acetoxy-4-pregnene-3,20-dione, reference compound]",,,1 mg/kg,
CC(=O)S[C@@H]1CC2=CC(=O)CC[C@]2(C)[C@H]2CC[C@]3(C)[C@@H](C(=O)COC(=O)C(C)(C)C)CC[C@H]3[C@H]12 [Example 8],45%,300,0.75 mg/kg,
"CCCC(=O)OCC(=O)[C@H]1CC[C@H]2[C@@H]3[C@H](SC(=O)CC)CC4=CC(=O)CC[C@]4(C)[C@H]3CC[C@]12C [Control C, 7α-Propionylthio-21-butyroxy-4-pregnene-3,20-dione, reference compound]",,,1.5 mg/kg,
CCCC(=O)OCC(=O)[C@H]1CC[C@H]2[C@@H]3[C@H](SC(C)=O)CC4=CC(=O)CC[C@]4(C)[C@H]3CC[C@]12C [Example 5],60%,300,0.5 mg/kg,"In vivo antagonist activity compared with corresponding 7α-propionylthio derivative (Controls A, B, C, D) [2]: always more active"
"CCC(=O)S[C@@H]1CC2=CC(=O)CC[C@]2(C)[C@H]2CC[C@]3(C)[C@@H](C(C)=O)CC[C@H]3[C@H]12 [Control A, 7α-Propionylthio-4-pregnene-3,20-dione, reference compound]",,,2 mg/kg,
"CC(=O)OCC(=O)[C@@]1(O)CC[C@H]2[C@H]3[C@H]([C@@H](O)C[C@@]21C)[C@@]1(C)CCC(=O)C=C1C[C@H]3SC(C)=O [Control E, 7α-Acetylthio-21-acetoxy-11β-dihydroxy-4-pregnene-3,20-dione, reference compound]",,,,"Mineralocorticoid antagonism Minimum effective dose [2, 5]: inactive"
